For data set [1], the system named is SUDHL4 human GCB-DLBCL tumor cells. In words: SUDHL4 xenograft efficacy (tumor volume, TGI, regression). The format is in vivo, female CB.17 SCID mice. Conditions: Study 1. The protocol: (§1) For the experiments described below, SUDHL4 human GCB-DLBCL tumor cells (10×10^6/mouse) were implanted subcutaneously into female CB.17 SCID mice. Mice were randomized into groups of 5 for efficacy and tolerability assessments based on tumor volume and treated with either vehicles (10% DMSO/25% Kleptose pH=5 (Vehicle 1) and 10% ethanol/30% PEG 400/60% Phosal PG-50 (Vehicle 2)), 130 mg/kg or 45 mg/kg capivasertib, 100 mg/kg venetoclax or the combination of capivasertib and venetoclax. Capivasertib was formulated in 10% DMSO/25% Kleptose pH=5 and venetoclax was formulated in 10% ethanol/30% PEG 400/60% Phosal PG-50. All agents were dosed by oral gavage at a 5 ml/kg dose volume according to schedules described, following tumor cell implantation. Tumor length and width was measured by caliper and tumor volume was calculated using the formula (length×width^2)*π/6.

The nature of data set [2]: Tolerability (body weight change) in SUDHL4 tumor-bearing mice. The format is in vivo, female CB.17 SCID mice. Conditions: Study 1. The protocol: as §1
The next data set relates to DLBCL cell lines. In words: In vitro activity against DLBCL cell lines. The format is cell-based. Conditions: used individually.
[3] abbreviates: capivasertib 130 mg/kg PO BID 10/14 4 days on/3 days off x 22 days.
Where [4] appears, read: venetoclax 100 mg/kg PO QD (continuous) x 22 days.

`NC1(C(=O)N[C@@H](CCO)c2ccc(Cl)cc2)CCN(c2ncnc3[nH]ccc23)CC1` [Capivasertib, (S)-4-amino-N-(1-(4-chlorophenyl)-3-hydroxypropyl)-1-(7H-pyrrolo[2,3-d]pyrimidin-4-yl)piperidine-4-carboxamide]: the Regression in data set [1] (setting [3]) came out at 0%. Besides, the TGI amounted to 82% in data set [1] (setting [3]) and 82% in data set [1] (capivasertib 130 mg/kg PO BID 10/14 4 days on/3 days off x 22 days, listed as capivasertib). Besides, the “Max avg body weight loss” value in data set [2] (setting [3]) came out at 6%. Moreover, the “Activity against DLBCL cell lines” value with DLBCL cell lines is “have activity”.

Take `CC1(C)CCC(CN2CCN(c3ccc(C(=O)NS(=O)(=O)c4ccc(NCC5CCOCC5)c([N+](=O)[O-])c4)c(Oc4cnc5[nH]ccc5c4)c3)CC2)=C(c2ccc(Cl)cc2)C1` [Venetoclax, 4-(4-{[2-(4-chlorophenyl)-4,4-dimethylcyclohex-1-en-1-yl]methyl}piperazin-1-yl)-N-({3-nitro-4-[(tetrahydro-2H-pyran-4-ylmethyl)amino]phenyl}sulfonyl)-2-(1H-pyrrolo[2,3-b]pyridin-5-yloxy)benzamide]: in data set [1] (setting [4]), the Regression stood at 0% and the TGI is reported as 42%. In addition, in data set [1] (venetoclax 100 mg/kg PO QD (continuous) x 22 days, listed as venetoclax), the TGI came out at 42%. The “Max avg body weight loss” value in data set [2] (setting [4]) was 2%. Moreover, the “Activity against DLBCL cell lines” value in the data set with DLBCL cell lines is on record as “have activity”.

Broadly, the TGI is how far tumour growth fell short of that in controls.

The record behind these values is patent US20250381190A1, “THERAPEUTIC COMBINATIONS OF CAPIVASERTIB AND VENETOCLAX” (AstraZeneca AB, priority 2022, published 2025).
